{"source": "patent US11807693B2", "about": "(priority 2014, dated 2023)", "note": "pEC50: −log10 of the molar value. Starred links: 1 amine or outer side, 2 acyl side, 3 side chain; linkers in the order of their positions; H or OH if unused. Non-standard residues stand in square brackets, D forms with d. Residues, ends and D or L forms follow the SMILES beside them. *: point of attachment. dBip = N[C@H](Cc1ccc(-c2ccccc2)cc1)C(=O)O; Oic = O=C(O)[C@@H]1C[C@@H]2CCCC[C@@H]2N1; Phe(4-Cl) = N[C@@H](Cc1ccc(Cl)cc1)C(=O)O; dPhe(4-Cl) = N[C@H](Cc1ccc(Cl)cc1)C(=O)O; Phe(4-I) = N[C@@H](Cc1ccc(I)cc1)C(=O)O; γGlu = O=C(O)[C@H](CCC(=O)[*:2])N[*:1]; d(β3hF) = N[C@@H](CC(=O)O)Cc1ccccc1; NMeR = CN[C@@H](CCCNC(=N)N)C(=O)O; Palmitoyl = CCCCCCCCCCCCCCCC(=O)*; Tridecanoyl = CCCCCCCCCCCCC(=O)*; hArg = N=C(N)NCCCC[C@H](N)C(=O)O; Cha = N[C@@H](CC1CCCCC1)C(=O)O; NMeL = CN[C@@H](CC(C)C)C(=O)O; β3hN = NC(=O)C[C@H](N)CC(=O)O; Tle = CC(C)(C)[C@H](N)C(=O)O; Pip = O=C(O)[C@@H]1CCCCN1; Nle = CCCC[C@H](N)C(=O)O; Pra = C#CC[C@H](N)C(=O)O; Deg = CCC(N)(CC)C(=O)O; AEEA = NCCOCCOCC(=O)O"}
{"target": "T1, rat APJ receptor (Rattus norvegicus, UniProt Q9JHG3)", "T1 construct": "expressed in transfected cells", "T1 sequence (Q9JHG3 1-377)": "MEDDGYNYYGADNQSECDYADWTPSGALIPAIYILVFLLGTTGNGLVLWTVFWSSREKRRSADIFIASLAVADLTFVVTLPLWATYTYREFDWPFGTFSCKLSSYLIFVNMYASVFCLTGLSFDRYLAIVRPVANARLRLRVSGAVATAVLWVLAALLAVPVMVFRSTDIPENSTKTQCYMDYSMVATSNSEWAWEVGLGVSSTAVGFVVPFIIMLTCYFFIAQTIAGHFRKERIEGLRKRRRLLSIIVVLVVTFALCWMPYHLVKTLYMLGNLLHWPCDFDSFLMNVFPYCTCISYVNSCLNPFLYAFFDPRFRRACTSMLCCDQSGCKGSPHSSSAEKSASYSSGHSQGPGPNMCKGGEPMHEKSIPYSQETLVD", "assay": "[35S] GTPγS assay, rat APJ receptor", "assay_type": "biochemical", "conditions": "Table 16, read-out: EC50 Rat APJ Receptor", "experimental": "(§1) The membranes were incubated with modified peptides in the assay buffer. […] Bound [^35S] GTPγS was separated from free radiolabel by filtration. The filter bound radioactivity was determined by liquid scintillation counting."}
{"smiles": "C#CC[C@H](NC(=O)[C@H](CC(C)C)NC(=O)[C@H](CCCNC(=N)N)N(C)C(=O)[C@@H]1CCCN1C(=O)[C@H](CCCNC(=N)N)NC(=O)[C@H](CCC(N)=O)NC(=O)COCCOCCNC(=O)COCCOCCNC(=O)CC[C@H](NC(=O)CCCCCCCCCCCC)C(=O)O)C(=O)N[C@@H](Cc1c[nH]cn1)C(=O)N[C@@H](CCCCN)C(=O)NCC(=O)N1CCC[C@H]1C(=O)N[C@@H](CCCC)C(=O)N1CCC[C@H]1C(=O)N[C@@H](Cc1ccc(Cl)cc1)C(=O)O", "note": "[compound 450] ({Tridecanoyl-γGlu-AEEA-AEEA}-QRP[NMeR]L[Pra]HKGP[Nle]P[Phe(4-Cl)]-OH)", "pEC50": 9.50}
{"smiles": "CCCCCCCCCCCCC(=O)N[C@@H](CCC(=O)NCCOCCOCC(=O)NCCOCCOCC(=O)N[C@H](CCC(N)=O)C(=O)N[C@@H](CCCCNC(=N)N)C(=O)N1CCC[C@H]1C(=O)N[C@H](CCCNC(=N)N)C(=O)N[C@@H](CC1CCCCC1)C(=O)N[C@@H](CO)C(=O)NC(CC)(CC)C(=O)N[C@@H](CCCCN)C(=O)NCC(=O)N1[C@H](C(=O)N[C@@H](CCCC)C(=O)N2CCC[C@H]2C(=O)N[C@@H](Cc2ccc(Cl)cc2)C(=O)O)C[C@@H]2CCCC[C@@H]21)C(=O)O", "note": "[compound 451] ({Tridecanoyl-γGlu-AEEA-AEEA}-[dQ][hArg]P[dR][Cha]S[Deg]KG[Oic][Nle]P[Phe(4-Cl)]-OH)", "pEC50": 7.50}
{"smiles": "CCCCCCCCCCCCC(=O)N[C@@H](CCC(=O)NCCOCCOCC(=O)NCCOCCOCC(=O)N[C@@H](CCC(N)=O)C(=O)N[C@@H](CCCNC(=N)N)C(=O)N1CCC[C@H]1C(=O)N(C)[C@@H](CCCNC(=N)N)C(=O)N[C@H](C(=O)N[C@@H](CO)C(=O)N[C@@H](Cc1c[nH]cn1)C(=O)N[C@@H](CCCCN)C(=O)NCC(=O)N1[C@H](C(=O)N[C@@H](CCCC)C(=O)N2CCC[C@H]2C(=O)N[C@@H](Cc2ccc(Cl)cc2)C(=O)O)C[C@@H]2CCCC[C@@H]21)C(C)(C)C)C(=O)O", "note": "[compound 439] ({Tridecanoyl-γGlu-AEEA-AEEA}-QRP[NMeR][Tle]SHKG[Oic][Nle]P[Phe(4-Cl)]-OH)", "pEC50": 8.49}
{"smiles": "CCCCCCCCCCCCC(=O)N[C@@H](CCC(=O)NCCOCCOCC(=O)NCCOCCOCC(=O)N[C@H](CCC(N)=O)C(=O)N[C@@H](CCCCNC(=N)N)C(=O)N1CCC[C@H]1C(=O)N[C@H](CCCNC(=N)N)C(=O)N[C@H](C(=O)N[C@@H](CO)C(=O)N[C@@H](Cc1c[nH]cn1)C(=O)N[C@@H](CCCCN)C(=O)NCC(=O)N1[C@H](C(=O)N[C@@H](CCCC)C(=O)N2CCC[C@H]2C(=O)N[C@@H](Cc2ccc(Cl)cc2)C(=O)O)C[C@@H]2CCCC[C@@H]21)C(C)(C)C)C(=O)O", "note": "[compound 433] ({Tridecanoyl-γGlu-AEEA-AEEA}-[dQ][hArg]P[dR][Tle]SHKG[Oic][Nle]P[Phe(4-Cl)]-OH)", "pEC50": 7.70}
{"smiles": "CCCCCCCCCCCCC(=O)N[C@@H](CCC(=O)NCCOCCOCC(=O)NCCOCCOCC(=O)N[C@@H](CCC(N)=O)C(=O)N[C@@H](CCCNC(=N)N)C(=O)N1CCC[C@H]1C(=O)N(C)[C@@H](CCCNC(=N)N)C(=O)N(C)[C@@H](CC(C)C)C(=O)N[C@@H](CO)C(=O)N[C@@H](Cc1c[nH]cn1)C(=O)N[C@@H](CCCCN)C(=O)NCC(=O)N1CCC[C@H]1C(=O)N[C@@H](CCCC)C(=O)N1CCC[C@H]1C(=O)N[C@@H](Cc1ccc(Cl)cc1)C(=O)O)C(=O)O", "note": "[compound 459]", "pEC50": 9.64}
{"target": "T1, rat APJ receptor", "assay": "[35S] GTPγS assay, rat APJ receptor", "assay_type": "biochemical", "conditions": "rat APJ receptor, read-out: EC50 Rat APJ Receptor", "experimental": "as §1"}
{"smiles": "CCCCCCCCCCCCC(=O)N[C@@H](CCC(=O)NCCOCCOCC(=O)NCCOCCOCC(=O)N[C@@H](CCCCNC(=N)N)C(=O)N[C@@H](CCCC)C(=O)N[C@@H](CCC(N)=O)C(=O)N[C@@H](CCCCNC(=N)N)C(=O)N1CCC[C@H]1C(=O)N[C@H](CCCNC(=N)N)C(=O)N(C)[C@@H](CC(C)C)C(=O)N[C@@H](CO)C(=O)N[C@@H](C)C(=O)N[C@@H](CCCCN)C(=O)NCC(=O)N1[C@H](C(=O)N[C@@H](Cc2ccc(I)cc2)C(=O)N2CCC[C@H]2C(=O)N[C@H](Cc2ccc(-c3ccccc3)cc2)C(=O)O)C[C@@H]2CCCC[C@@H]21)C(=O)O", "note": "[compound 327] ({Tridecanoyl-γGlu-AEEA-AEEA}-[hArg][Nle]Q[hArg]P[dR][NMeL]SAKG[Oic][Phe(4-I)]P[dBip]-OH)", "pEC50": 7.83}
{"smiles": "CCCCCCCCCCCCC(=O)N[C@@H](CCC(=O)NCCOCCOCC(=O)NCCOCCOCC(=O)NCCOCCOCC(=O)NCCOCCOCC(=O)NCCOCCOCC(=O)NCCOCCOCC(=O)N[C@@H](CCC(N)=O)C(=O)N[C@@H](CCCNC(=N)N)C(=O)N1CCC[C@H]1C(=O)N(C)[C@@H](CCCNC(=N)N)C(=O)N[C@@H](CC(C)C)C(=O)N[C@@H](CO)C(=O)N[C@@H](Cc1c[nH]cn1)C(=O)N[C@@H](CCCCN)C(=O)NCC(=O)N1CCC[C@H]1C(=O)N[C@@H](CCCC)C(=O)N1CCC[C@H]1C(=O)N[C@@H](Cc1ccc(Cl)cc1)C(=O)O)C(=O)O", "note": "[compound 398]", "pEC50": 9.93}
{"smiles": "CCCCCCCCCCCCC(=O)N[C@@H](CCC(=O)NCCOCCOCC(=O)NCCOCCOCC(=O)N[C@@H](CCCCNC(=N)N)C(=O)N[C@H](CCCNC(=N)N)C(=O)N[C@@H](CCC(N)=O)C(=O)N[C@@H](CCCCNC(=N)N)C(=O)N1CCC[C@H]1C(=O)N[C@H](CCCNC(=N)N)C(=O)N(C)[C@@H](CC(C)C)C(=O)N[C@@H](C)C(=O)N[C@@H](Cc1c[nH]cn1)C(=O)N[C@@H](CCCC)C(=O)NCC(=O)N1[C@H](C(=O)N[C@@H](Cc2ccc(I)cc2)C(=O)N2CCC[C@H]2C(=O)N[C@H](Cc2ccc(-c3ccccc3)cc2)C(=O)O)C[C@@H]2CCCC[C@@H]21)C(=O)O", "note": "[compound 318] ({Tridecanoyl-γGlu-AEEA-AEEA}-[hArg][dR]Q[hArg]P[dR][NMeL]AH[Nle]G[Oic][Phe(4-I)]P[dBip]-OH)", "pEC50": 7.34}
{"smiles": "CCCCCCCCCCCCC(=O)N[C@@H](CCC(=O)NCCOCCOCC(=O)NCCOCCOCC(=O)N[C@@H](CC(N)=O)CC(=O)N[C@@H](CCCCNC(=N)N)C(=O)N1CCC[C@H]1C(=O)N(C)[C@@H](CCCNC(=N)N)C(=O)N[C@@H](CC1CCCCC1)C(=O)N[C@@H](CO)C(=O)N[C@@H](Cc1c[nH]cn1)C(=O)N[C@@H](CCCCN)C(=O)NCC(=O)N1[C@H](C(=O)N[C@@H](CCCC)C(=O)N2CCC[C@H]2C(=O)N[C@H](Cc2ccc(Cl)cc2)C(=O)O)C[C@@H]2CCCC[C@@H]21)C(=O)O", "note": "[compound 299] ({Tridecanoyl-γGlu-AEEA-AEEA}-[β3hN][hArg]P[NMeR][Cha]SHKG[Oic][Nle]P[dPhe(4-Cl)]-OH)", "pEC50": 7.84}
{"smiles": "CCCCCCCCCCCCCCCC(=O)N[C@@H](CCC(=O)NCCOCCOCC(=O)NCCOCCOCC(=O)N[C@H](CCC(N)=O)C(=O)N[C@@H](CCCNC(=N)N)C(=O)N1CCC[C@H]1C(=O)N(C)[C@@H](CCCNC(=N)N)C(=O)N[C@@H](CC1CCCCC1)C(=O)N[C@@H](CO)C(=O)N[C@@H](Cc1c[nH]cn1)C(=O)N[C@@H](CCCCN)C(=O)NCC(=O)N1CCCC[C@H]1C(=O)N[C@@H](CCCC)C(=O)N[C@@H](CC(=O)O)Cc1ccccc1)C(=O)O", "note": "[compound 574] ({Palmitoyl-γGlu-AEEA-AEEA}-[dQ]RP[NMeR][Cha]SHKG[Pip][Nle][d(β3hF)]-OH)", "pEC50": 8.55}
{"smiles": "CCCCCCCCCCCCC(=O)N[C@@H](CCC(=O)NCCOCCOCC(=O)NCCOCCOCC(=O)N[C@@H](CCCCNC(=N)N)C(=O)N[C@H](CCCNC(=N)N)C(=O)N[C@@H](CCC(N)=O)C(=O)N[C@@H](CCCC)C(=O)N1CCC[C@H]1C(=O)N[C@H](CCCNC(=N)N)C(=O)N(C)[C@@H](CC(C)C)C(=O)N[C@@H](C)C(=O)N[C@@H](C)C(=O)N[C@@H](CCCCN)C(=O)NCC(=O)N1[C@H](C(=O)N[C@@H](Cc2ccc(I)cc2)C(=O)N2CCC[C@H]2C(=O)N[C@H](Cc2ccc(-c3ccccc3)cc2)C(=O)O)C[C@@H]2CCCC[C@@H]21)C(=O)O", "note": "[compound 334] ({Tridecanoyl-γGlu-AEEA-AEEA}-[hArg][dR]Q[Nle]P[dR][NMeL]AAKG[Oic][Phe(4-I)]P[dBip]-OH)", "pEC50": 7.35}
